Measured values: publication PMC8911752, “The Synthesis and Initial Evaluation of MerTK Targeted PET Agents” (Molecules, 2022)

Assays:
[1] = biological target: T1, Tyro3 (Homo sapiens, UniProt Q06418); experiment: Microcapillary electrophoresis (MCE) kinase assay, Tyro3; type: biochemical; settings: ATP at Km, mean of two or more independent assays
T1 sequence (Q06418 41-890): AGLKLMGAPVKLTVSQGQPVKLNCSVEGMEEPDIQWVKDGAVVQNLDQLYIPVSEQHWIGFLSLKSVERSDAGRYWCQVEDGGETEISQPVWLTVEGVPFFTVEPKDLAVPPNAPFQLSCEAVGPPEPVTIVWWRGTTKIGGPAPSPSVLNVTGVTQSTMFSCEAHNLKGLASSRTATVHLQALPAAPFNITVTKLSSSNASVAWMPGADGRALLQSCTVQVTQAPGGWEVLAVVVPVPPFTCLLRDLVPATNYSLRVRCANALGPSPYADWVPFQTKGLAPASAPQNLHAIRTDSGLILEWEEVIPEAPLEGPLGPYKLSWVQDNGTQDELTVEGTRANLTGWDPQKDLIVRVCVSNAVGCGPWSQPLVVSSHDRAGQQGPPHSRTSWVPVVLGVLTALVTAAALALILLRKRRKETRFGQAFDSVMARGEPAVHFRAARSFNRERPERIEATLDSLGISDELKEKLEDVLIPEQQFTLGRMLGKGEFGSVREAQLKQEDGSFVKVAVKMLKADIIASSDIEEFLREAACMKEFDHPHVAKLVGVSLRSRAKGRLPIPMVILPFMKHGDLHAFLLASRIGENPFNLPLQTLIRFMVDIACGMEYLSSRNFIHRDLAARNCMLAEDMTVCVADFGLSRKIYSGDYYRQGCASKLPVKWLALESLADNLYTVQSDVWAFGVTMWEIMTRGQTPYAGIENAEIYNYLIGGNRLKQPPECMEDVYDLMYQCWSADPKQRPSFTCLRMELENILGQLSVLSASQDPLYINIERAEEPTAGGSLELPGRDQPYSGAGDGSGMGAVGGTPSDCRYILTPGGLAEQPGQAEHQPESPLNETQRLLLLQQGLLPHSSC
Protocol: The inhibitory activities of standards towards MerTK, Axl, Tyro3 and Flt3 were determined in our in-house microcapillary electrophoresis (MCE) assays.
Microcapillary Electrophoresis (MCE) Assays were performed with literature method. […] All reactions were terminated by addition of 20 µL of 70 mM EDTA. After an 180 min incubation, phosphorylated and unphosphorylated substrate peptides (Table 2) were separated in buffer supplemented with 1 x CR-8 on a LabChip EZ Reader equipped with a 12-sipper chip. Data were analyzed using EZ Reader software.

[2] = system: B16F10 tumor-bearing mice; experiment: PET imaging in B16F10 tumor-bearing mice; type: in vivo; settings: 68Ga-labeled, initial pilot study in mice
[3] = system: B16F10 tumor-bearing mice; experiment: PET imaging in B16F10 tumor-bearing mice; type: in vivo; settings: initial PET study, 18F-labeled agents
Protocol: Evaluation of the PET agent [^18F]-MerTK-6 was performed on B16F10 tumor-bearing mice. At 30 min post-injection (p.i), the uptake in tumor, liver, kidney, and muscle was 4.65 ± 1.25, 14.79 ± 0.99, 10.42 ± 1.01, and 2.51 ± 0.48%ID/g, respectively. The uptake at 2 h p.i. was 4.79 ± 0.24, 9.72 ± 1.56, 5.34 ± 1.25, and 1.55 ± 0.23%ID/g, respectively. Overall, the tumor uptake was maintained at ~5%ID/g and the tumor to muscle contrast increased to 3.09 at 2 h p.i, compared with 1.86 at 0.5 h p.i.
All animal studies were reviewed and approved by The University of North Carolina at Chapel Hill Institutional Animal Care and Use Committee. The B16F10 tumor cell was obtained from the LCCC tissue culture facility (the University of North Carolina at Chapel Hill, Chapel Hill, NC, USA). The B16F10 tumor-bearing […] mouse model was prepared as described previously. Briefly, B16/F10 cells were subcutaneously injected on the right flank of C57BL/6 female mice (Jackson Laboratory). The tumor volume was measured daily. When the tumor size reached 100 mm^3, the mice were used for PET imaging studies.
B16F10 tumor-bearing mice (n = 3/group) were intravenously injected via the tail vein with tracers. At 30 min and 120 min post-injection, a 10-min static emission scan was acquired with a SuperArgus small-animal PET/CT scanner. The regions of interests (ROIs) were drawn over the tumor and other organs and calculated as %ID/g. The mean uptake and standard deviation were calculated.

| IC50 [1] | tumor uptakes [2] | tumor uptake and contrast compared with MerTK-5 [3] | SMILES |
| --- | --- | --- | --- |
| 180 nM |  |  | C[C@H](Nc1ncc2c(C3CCN(C)CC3)cn([C@H]3CC[C@H](O)CC3)c2n1)c1ccccc1 [MerTK-2] |
| 180 nM | < 1 %ID/g |  | C[C@H](Nc1ncc2c(C3CCN(C(=S)Nc4ccc(CC5CN(CC(=O)O)CCN(CC(=O)O)CCN5CC(=O)O)cc4)CC3)cn([C@H]3CC[C@H](O)CC3)c2n1)c1ccccc1 (stereo partly drawn) [MerTK-4] |
| 190 nM |  |  | CCC[C@H](C)Nc1ncc2c(C3CCN(CCF)CC3)cn([C@H]3CC[C@H](O)CC3)c2n1 [MerTK-5] |
| 120 nM |  | more prominent tumor uptake and contrast | C[C@H](Nc1ncc2c(C3CCN(CCF)CC3)cn([C@H]3CC[C@H](O)CC3)c2n1)c1ccccc1 [MerTK-6] |
